For data set [1], the target named is Glycogen synthase kinase-3 (Sus scrofa, UniProt B2LUN4+I6LNT8). The data set is described as follows: Inhibition of porcine brain GSK-3alpha/beta using YRRAAVPPSPSLSRHSSPHQpSEDEEE as substrate incubated for 30 mins in presence of ATP by scintillation counting method. It counts as tissue-based.
In data set [2] the target is Dual specificity protein kinase CLK4 (Mus musculus, UniProt O35493). The data set is described as follows: Inhibition of GST-fused mouse recombinant CLK4 expressed in Escherichia coli using GRSRSRSRSRSR peptide as substrate incubated for 30 mins in presence of ATP by scintillation counting method.
Data set [3] has as its target Dual specificity protein kinase CLK3 (Mus musculus, UniProt O35492). The data set is described as follows: Inhibition of GST-fused mouse recombinant CLK3 expressed in Escherichia coli using GRSRSRSRSRSR peptide as substrate incubated for 30 mins in presence of ATP by scintillation counting method.
Data set [4] deals with Dual specificity protein kinase CLK1 (Mus musculus, UniProt P22518). The experiment in a line: Inhibition of GST-fused mouse recombinant CLK1 expressed in Escherichia coli using GRSRSRSRSRSR peptide as substrate incubated for 30 mins in presence of ATP by scintillation counting method.
In data set [5] the target is Dual specificity protein kinase CLK2 (Mus musculus, UniProt O35491). The experiment in a line: Inhibition of mouse recombinant GST-fused CLK2 expressed in Escherichia coli using GRSRSRSRSRSR peptide as substrate incubated for 30 mins in presence of ATP by scintillation counting method.
Data set [6] concerns the target Dual specificity tyrosine-phosphorylation-regulated kinase 1A (Homo sapiens, UniProt Q13627). The experiment in a line: Inhibition of GST-fused human recombinant DYRK1A expressed in Escherichia coli using GRSRSRSRSRSR peptide as substrate incubated for 30 mins in presence of ATP by scintillation counting method.
Data set [7] addresses Dual specificity tyrosine-phosphorylation-regulated kinase 1B (Homo sapiens, UniProt Q9Y463).
The target in data set [8] is T1, Dual specificity tyrosine-phosphorylation-regulated kinase 2 (Homo sapiens, UniProt Q92630).
T1 sequence (Q92630 whole entry): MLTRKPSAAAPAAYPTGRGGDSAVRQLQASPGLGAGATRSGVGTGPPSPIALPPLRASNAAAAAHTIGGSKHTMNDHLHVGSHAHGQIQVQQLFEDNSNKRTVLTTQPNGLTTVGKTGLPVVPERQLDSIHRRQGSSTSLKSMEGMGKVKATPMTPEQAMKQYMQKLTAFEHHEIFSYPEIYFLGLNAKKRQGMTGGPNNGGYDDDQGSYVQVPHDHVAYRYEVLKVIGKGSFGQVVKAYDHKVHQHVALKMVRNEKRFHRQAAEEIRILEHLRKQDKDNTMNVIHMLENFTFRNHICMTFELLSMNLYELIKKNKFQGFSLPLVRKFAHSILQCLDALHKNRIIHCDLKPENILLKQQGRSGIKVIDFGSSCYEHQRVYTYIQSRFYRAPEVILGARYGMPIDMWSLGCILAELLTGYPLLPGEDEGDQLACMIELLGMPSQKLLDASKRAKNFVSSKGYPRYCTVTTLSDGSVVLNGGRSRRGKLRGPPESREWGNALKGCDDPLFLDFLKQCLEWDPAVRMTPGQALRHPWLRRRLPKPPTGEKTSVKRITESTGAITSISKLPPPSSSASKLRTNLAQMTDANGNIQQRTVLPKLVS
The experiment in a line: Inhibition of GST-fused human recombinant DYRK2 expressed in Escherichia coli using GRSRSRSRSRSR peptide as substrate incubated for 30 mins in presence of ATP by scintillation counting method.

The target in data set [9] is T2, Dual specificity tyrosine-phosphorylation-regulated kinase 3 (Homo sapiens, UniProt O43781).
T2 sequence (O43781 whole entry): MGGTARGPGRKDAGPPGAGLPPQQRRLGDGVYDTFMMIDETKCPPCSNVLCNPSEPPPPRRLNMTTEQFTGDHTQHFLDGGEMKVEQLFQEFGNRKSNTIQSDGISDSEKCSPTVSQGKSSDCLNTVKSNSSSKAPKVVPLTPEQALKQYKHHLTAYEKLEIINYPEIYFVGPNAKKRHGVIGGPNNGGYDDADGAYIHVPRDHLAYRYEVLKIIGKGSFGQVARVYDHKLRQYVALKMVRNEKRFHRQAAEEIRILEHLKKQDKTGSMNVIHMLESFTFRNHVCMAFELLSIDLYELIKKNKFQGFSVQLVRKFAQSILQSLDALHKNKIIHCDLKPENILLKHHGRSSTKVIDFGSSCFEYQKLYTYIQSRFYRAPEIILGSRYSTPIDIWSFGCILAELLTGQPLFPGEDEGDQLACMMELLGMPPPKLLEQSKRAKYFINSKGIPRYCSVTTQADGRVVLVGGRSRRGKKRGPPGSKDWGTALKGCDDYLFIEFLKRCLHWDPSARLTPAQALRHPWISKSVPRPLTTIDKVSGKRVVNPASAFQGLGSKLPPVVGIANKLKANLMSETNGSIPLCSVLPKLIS
The experiment in a line: Inhibition of GST-fused human recombinant DYRK3 expressed in Escherichia coli using GRSRSRSRSRSR peptide as substrate incubated for 30 mins in presence of ATP by scintillation counting method.

Data set [10] addresses Serine/threonine-protein kinase pim-1 (Homo sapiens, UniProt P11309). The experiment in a line: Inhibition of human recombinant Pim1 expressed in Escherichia coli using histone H1 as substrate incubated for 30 mins in presence of ATP by scintillation counting method.
The target in the next data set is Casein kinase 2 (Homo sapiens, UniProt P67870+P68400+P19784+Q8NEV1). The data set is described as follows: Inhibition of human recombinant CK2 using RRRDDDSDDD peptide as substrate incubated for 30 mins in presence of ATP by scintillation counting method. Type of data set: protein assay.
A further data set concerns U2OS. The experiment in a line: Induction of PI3K/mTor-dependent autophagy in human U2OS cells assessed as number of LC3 foci per cell at 10 uM measured after 4 hrs. Type of data set: cell-based. The following applies: filed as activator.
Data set [11] concerns HT-22. The data set is described as follows: Modulation of CLK1 pre-mRNA splicing in mouse HT-22 cells assessed as inclusion of CLK1 exon 4 by measuring change in threshold cycle at 10 uM measured after 4 hrs by real time PCR analysis. Type of data set: cell-based. The following applies: filed as modulator.
The next data set has as its target Cannabinoid receptor 1 (Homo sapiens, UniProt P21554). The experiment in a line: Antagonist activity at CP-55940-activated CB1 receptor (unknown origin) at 10 uM by beta-arrestin assay relative to control. Also noted: scale not given: the % may be the effect or the level left. Type of data set: functional.
Data set [12] can be described thus: Neurotoxicity against mouse HT-22 cells assessed as cell survival at 20 uM treated for 24 hrs by MTS assay. The following applies: ht-22, 24 h. Type of data set: toxicity, cell-based. Background: Formazan colour is commonly taken as a measure of viable cells.
Data set [13] has as its system HT-22. The data set is described as follows: Neuroprotective activity against glutamate-induced cell death in mouse HT-22 cells treated for 24 hrs by MTS assay. Type of data set: functional, cell-based. Particulars: HT-22, 24 h.

Bounds are passed on as bounds.

Usually IC50 stands for the concentration that gives 50% inhibition. As a reminder, the EC50 is the concentration needed to bring the measured effect to its halfway point.

Chain of Cannabinoid receptor 1 (P21554 whole entry): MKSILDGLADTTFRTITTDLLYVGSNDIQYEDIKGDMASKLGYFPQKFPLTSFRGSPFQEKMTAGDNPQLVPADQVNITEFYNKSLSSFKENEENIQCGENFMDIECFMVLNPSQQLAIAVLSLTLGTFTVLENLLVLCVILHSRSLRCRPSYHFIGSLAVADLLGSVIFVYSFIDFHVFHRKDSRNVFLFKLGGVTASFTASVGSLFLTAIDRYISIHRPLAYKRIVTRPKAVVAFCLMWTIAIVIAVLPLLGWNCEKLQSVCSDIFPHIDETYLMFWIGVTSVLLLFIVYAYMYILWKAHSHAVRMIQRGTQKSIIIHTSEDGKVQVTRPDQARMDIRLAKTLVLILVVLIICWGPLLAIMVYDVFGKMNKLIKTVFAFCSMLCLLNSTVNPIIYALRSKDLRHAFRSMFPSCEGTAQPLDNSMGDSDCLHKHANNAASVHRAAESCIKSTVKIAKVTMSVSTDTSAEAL
Chain of Dual specificity protein kinase CLK2 (O35491 whole entry, the tested form may be a part): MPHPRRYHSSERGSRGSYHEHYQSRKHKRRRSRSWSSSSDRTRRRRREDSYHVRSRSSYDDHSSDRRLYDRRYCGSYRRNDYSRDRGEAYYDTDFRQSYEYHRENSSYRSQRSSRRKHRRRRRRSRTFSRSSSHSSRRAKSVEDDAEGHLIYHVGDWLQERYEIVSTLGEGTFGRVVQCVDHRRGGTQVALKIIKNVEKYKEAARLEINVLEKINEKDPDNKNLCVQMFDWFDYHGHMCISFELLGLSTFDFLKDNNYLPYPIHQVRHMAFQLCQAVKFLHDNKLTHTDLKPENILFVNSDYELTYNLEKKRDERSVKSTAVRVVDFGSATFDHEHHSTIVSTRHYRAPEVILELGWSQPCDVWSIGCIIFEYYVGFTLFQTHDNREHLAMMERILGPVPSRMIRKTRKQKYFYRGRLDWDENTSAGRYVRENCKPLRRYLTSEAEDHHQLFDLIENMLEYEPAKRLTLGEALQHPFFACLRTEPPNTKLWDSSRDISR
Chain of Serine/threonine-protein kinase pim-1 (P11309 whole entry): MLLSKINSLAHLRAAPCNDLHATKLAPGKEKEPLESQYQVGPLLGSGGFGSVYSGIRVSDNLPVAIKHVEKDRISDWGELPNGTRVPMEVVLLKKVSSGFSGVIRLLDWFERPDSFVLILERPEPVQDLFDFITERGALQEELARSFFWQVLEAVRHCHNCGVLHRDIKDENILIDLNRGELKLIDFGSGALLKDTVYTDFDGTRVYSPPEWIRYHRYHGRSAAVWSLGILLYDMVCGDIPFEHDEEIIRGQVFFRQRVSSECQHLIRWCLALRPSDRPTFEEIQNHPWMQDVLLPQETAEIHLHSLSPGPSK
Chain of Dual specificity protein kinase CLK4 (O35493 whole entry, the tested form may be a part): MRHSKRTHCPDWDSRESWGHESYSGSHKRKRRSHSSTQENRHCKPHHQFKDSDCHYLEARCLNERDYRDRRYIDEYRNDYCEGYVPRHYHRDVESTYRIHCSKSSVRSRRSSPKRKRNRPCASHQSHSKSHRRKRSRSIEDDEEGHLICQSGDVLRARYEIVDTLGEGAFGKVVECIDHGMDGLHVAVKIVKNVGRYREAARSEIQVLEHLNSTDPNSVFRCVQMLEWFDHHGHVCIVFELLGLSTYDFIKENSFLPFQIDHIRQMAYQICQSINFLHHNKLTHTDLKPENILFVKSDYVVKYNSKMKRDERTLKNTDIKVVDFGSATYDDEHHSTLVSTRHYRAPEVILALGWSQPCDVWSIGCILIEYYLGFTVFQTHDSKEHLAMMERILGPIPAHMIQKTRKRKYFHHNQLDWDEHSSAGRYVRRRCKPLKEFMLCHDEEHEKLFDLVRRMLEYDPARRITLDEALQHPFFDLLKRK
Chain of Dual specificity tyrosine-phosphorylation-regulated kinase 1B (Q9Y463 whole entry): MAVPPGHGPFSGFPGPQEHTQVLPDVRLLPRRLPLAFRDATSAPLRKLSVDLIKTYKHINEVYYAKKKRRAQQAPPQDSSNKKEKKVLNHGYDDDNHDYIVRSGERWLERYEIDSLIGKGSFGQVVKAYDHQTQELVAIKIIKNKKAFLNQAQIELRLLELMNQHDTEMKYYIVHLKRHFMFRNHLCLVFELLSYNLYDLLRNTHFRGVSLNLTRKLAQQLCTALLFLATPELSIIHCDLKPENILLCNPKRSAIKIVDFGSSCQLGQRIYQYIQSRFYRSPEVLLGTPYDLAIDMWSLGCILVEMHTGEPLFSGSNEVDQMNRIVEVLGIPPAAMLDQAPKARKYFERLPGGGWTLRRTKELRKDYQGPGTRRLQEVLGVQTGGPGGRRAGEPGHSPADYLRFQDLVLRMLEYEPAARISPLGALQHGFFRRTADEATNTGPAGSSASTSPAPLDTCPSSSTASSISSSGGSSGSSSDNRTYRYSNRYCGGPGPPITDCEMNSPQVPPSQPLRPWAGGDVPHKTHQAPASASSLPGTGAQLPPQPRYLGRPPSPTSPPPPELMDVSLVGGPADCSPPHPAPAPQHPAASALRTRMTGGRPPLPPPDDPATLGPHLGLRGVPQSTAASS
Chain of Dual specificity protein kinase CLK3 (O35492 whole entry, the tested form may be a part): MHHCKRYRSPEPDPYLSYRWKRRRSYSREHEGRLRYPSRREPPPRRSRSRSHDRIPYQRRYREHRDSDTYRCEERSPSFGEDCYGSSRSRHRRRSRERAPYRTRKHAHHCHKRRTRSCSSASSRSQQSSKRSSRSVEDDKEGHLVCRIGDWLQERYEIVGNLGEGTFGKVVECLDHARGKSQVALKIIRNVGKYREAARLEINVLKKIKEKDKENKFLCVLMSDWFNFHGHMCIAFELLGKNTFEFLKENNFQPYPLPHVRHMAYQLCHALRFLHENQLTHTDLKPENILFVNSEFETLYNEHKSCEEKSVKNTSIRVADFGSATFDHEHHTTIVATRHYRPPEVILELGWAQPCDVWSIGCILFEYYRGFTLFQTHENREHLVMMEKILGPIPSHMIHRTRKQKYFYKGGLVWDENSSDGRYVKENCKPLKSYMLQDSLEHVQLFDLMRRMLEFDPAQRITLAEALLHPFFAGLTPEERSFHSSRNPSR
Chain of Dual specificity protein kinase CLK1 (P22518 whole entry, the tested form may be a part): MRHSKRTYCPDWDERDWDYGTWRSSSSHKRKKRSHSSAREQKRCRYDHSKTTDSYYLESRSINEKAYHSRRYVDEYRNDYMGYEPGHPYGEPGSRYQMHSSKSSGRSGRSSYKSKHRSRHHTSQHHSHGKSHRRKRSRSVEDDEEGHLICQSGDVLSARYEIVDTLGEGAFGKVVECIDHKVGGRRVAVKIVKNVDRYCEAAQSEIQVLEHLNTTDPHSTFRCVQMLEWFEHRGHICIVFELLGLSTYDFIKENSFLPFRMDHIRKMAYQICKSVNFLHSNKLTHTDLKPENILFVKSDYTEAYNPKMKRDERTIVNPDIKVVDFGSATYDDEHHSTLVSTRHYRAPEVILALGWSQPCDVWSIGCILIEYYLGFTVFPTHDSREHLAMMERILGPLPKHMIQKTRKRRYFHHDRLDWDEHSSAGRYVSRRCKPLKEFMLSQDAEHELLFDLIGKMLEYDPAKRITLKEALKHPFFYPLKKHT

For `O=C1NC(N2CCOCC2)=N/C1=C\c1ccc2c(c1)OCO2`, the IC50 in data set [1] came to 6500 nM; in data set [2], 290 nM; in data set [3] it was 5600 nM; in data set [4], 430 nM; in data set [5], 1500 nM; in data set [6], 440 nM. Besides, the IC50 in data set [7] is 1700 nM; in data set [8] it was 410 nM; in [9], 1900 nM; in data set [10], 2400 nM; at Casein kinase 2 it was 1100 nM. Besides, the Activity is 6.5 in the data set on U2OS, -51% at Cannabinoid receptor 1 and “Non-Toxic” in data set [12]. Besides, the deltaCT in the data set with HT-22 [11] was found to be 0.63.
Turning to `CSC1=N/C(=C\c2ccc3c(c2)OCO3)C(=O)N1`, the IC50 stood at 1800 nM in [1]; 80 nM in data set [2]; 2400 nM in data set [3]; 73 nM in data set [4]; 250 nM in [5]; 110 nM in data set [6]. The IC50 in data set [7] amounted to 330 nM; in data set [8], 80 nM; in [9], 410 nM; in [10], 1200 nM; on Casein kinase 2, 2200 nM. Moreover, the Activity in the data set on U2OS is 5.9; at Cannabinoid receptor 1 it was -23%; in [12], “Non-Toxic”. Further, the deltaCT in the data set on HT-22 [11] turned out to be 0.13.
Consider `Cc1ccc(NC2=N/C(=C\c3ccc4c(c3)OCO4)C(=O)N2)cc1`, for which the IC50 in [1] came to 7300 nM; in [2], 56 nM; in [4], 53 nM; in data set [5], 1000 nM; in data set [6], 18 nM; in data set [7], 53 nM. Further, the IC50 in data set [8] amounted to 34 nM; in [9], 320 nM; in data set [10] it was 3500 nM; at Casein kinase 2, 1700 nM. Moreover, the EC50 in the data set with HT-22 [13] was 3200 nM. Also, the Activity in the data set on U2OS was 8.4; on Cannabinoid receptor 1 (filed as antagonist), 90.8%; in data set [12] it was “Non-Toxic”. For the same compound, the deltaCT with HT-22 [11] was 2.29.
With `O=C1NC(NC2CCNCC2)=N/C1=C\c1ccc2c(c1)OCO2`, the IC50 came out at 1300 nM in data set [1]; 260 nM in data set [2]; 5300 nM in data set [3]; 220 nM in data set [4]; 900 nM in [5]; 340 nM in data set [6]. Also, the IC50 in [7] was 650 nM; in data set [8], 250 nM; in [9] it was 910 nM; in data set [10], 6400 nM; on Casein kinase 2, > 10000 nM. Besides, the Activity with U2OS is 7.4; on Cannabinoid receptor 1, -43.5%; in data set [12], “Non-Toxic”. Besides, the deltaCT with HT-22 [11] is 0.36.
For `CCCSC1=N/C(=C\c2ccc3c(c2)OCO3)C(=O)N1C`, the IC50 in data set [1] was 2000 nM; in data set [2], 22 nM; in data set [3] it was > 10000 nM; in data set [4] it was 64 nM; in [5] it was 320 nM; in data set [6], 340 nM. Besides, the half-inhibitory concentration (IC50) was 620 nM in data set [7]; 330 nM in [8]; 620 nM in data set [9]; 2000 nM in [10]; > 10000 nM on Casein kinase 2. Further, the values for the Activity (with U2OS; on Cannabinoid receptor 1; in data set [12]) were 6.2, 37.2% and “Non-Toxic”, respectively. Besides, the deltaCT in the data set on HT-22 [11] is -1.36.
On to `O=C1NC(N2CCCC2)=N/C1=C\c1ccc2c(c1)OCO2`, for which the IC50 in data set [1] stood at 6200 nM; in [2], 380 nM; in [3], 3200 nM; in [4], 600 nM; in [5], 2300 nM; in [6], 630 nM. The IC50 was determined as 2300 nM in data set [7]; 930 nM in data set [8]; 930 nM in data set [9]; 1500 nM in data set [10]; 1200 nM on Casein kinase 2. In addition, the Activity in the data set with U2OS is 5; at Cannabinoid receptor 1 it was -59.1%; in data set [12] it was “Non-Toxic”. The deltaCT with HT-22 [11] came out at 0.05.
In the case of `O=C1NC(N2CCCCC2)=N/C1=C\c1ccc2c(c1)OCO2`, the 50% inhibitory concentration (IC50) in data set [1] amounted to 2600 nM; in [2], 250 nM; in [3], 4500 nM; in [4], 240 nM; in data set [5], 1300 nM; in [6] it was 130 nM. Moreover, the IC50 was 440 nM in data set [7]; 220 nM in data set [8]; 530 nM in data set [9]; 880 nM in [10]; 760 nM at Casein kinase 2. Also, the Activity in the data set on U2OS was 6.8; at Cannabinoid receptor 1 it was -58.4%; in data set [12], “Non-Toxic”. Moreover, the deltaCT with HT-22 [11] came out at 0.68.
Take `O=C1NC(N2CCC(N3CCCCC3)CC2)=N/C1=C\c1ccc2c(c1)OCO2`: the IC50 in data set [1] is 6200 nM; in data set [2], 1400 nM; in [3], > 10000 nM; in data set [4] it was 920 nM; in [5] it was 3200 nM; in [6] it was 1100 nM. Moreover, the IC50 in data set [7] is 4400 nM; in data set [8] it was 1400 nM; in [9], 5200 nM; in data set [10], 7600 nM; on Casein kinase 2 it was > 10000 nM. Further, the values for the Activity (in the data set with U2OS; on Cannabinoid receptor 1; in [12]) were 7.1, -51.1% and “Non-Toxic”, respectively. The deltaCT with HT-22 [11] worked out at 0.42.
For `CCSC1=N/C(=C\c2ccc3c(c2)OCO3)C(=O)N1C`, the IC50 in data set [1] came to 1100 nM; in data set [2], 110 nM; in [3], 2100 nM; in data set [4], 120 nM; in [5], 420 nM; in data set [6] it was 240 nM. Besides, the IC50 in data set [7] was 980 nM; in data set [8], 340 nM; in [9], 300 nM; in data set [10] it was 2100 nM; on Casein kinase 2, > 10000 nM. For the same compound, the figures for the Activity (in the data set on U2OS; on Cannabinoid receptor 1; in data set [12]) were 6.8, -0.7% and “Non-Toxic”, respectively. Also, the deltaCT in the data set with HT-22 [11] is -0.99.

For the origin of these results see ChEMBL document CHEMBL5126517, “Structure-Activity Relationship in the Leucettine Family of Kinase Inhibitors” (J Med Chem, 2022).
